ChEMBL document CHEMBL2396603, “Heterocyclic modification of a novel bicyclo[3.1.0]hexane NPY1 receptor antagonist” (Bioorg Med Chem Lett, 2013)
Values after ≈ are worked out from the molar mass of the structure shown. Active and inactive are the calls of the source. No cut-off for these calls is given here.

Experiments:
[1] = biological target: T1, Neuropeptide Y receptor type 1 (Homo sapiens, UniProt P25929); assay: Displacement of [125I]PYY from NPY1 receptor in human SK-N-MC cells after 1 hr by microbeta scintillation counting analysis; assay type: cell-based
T1 sequence (P25929 whole entry): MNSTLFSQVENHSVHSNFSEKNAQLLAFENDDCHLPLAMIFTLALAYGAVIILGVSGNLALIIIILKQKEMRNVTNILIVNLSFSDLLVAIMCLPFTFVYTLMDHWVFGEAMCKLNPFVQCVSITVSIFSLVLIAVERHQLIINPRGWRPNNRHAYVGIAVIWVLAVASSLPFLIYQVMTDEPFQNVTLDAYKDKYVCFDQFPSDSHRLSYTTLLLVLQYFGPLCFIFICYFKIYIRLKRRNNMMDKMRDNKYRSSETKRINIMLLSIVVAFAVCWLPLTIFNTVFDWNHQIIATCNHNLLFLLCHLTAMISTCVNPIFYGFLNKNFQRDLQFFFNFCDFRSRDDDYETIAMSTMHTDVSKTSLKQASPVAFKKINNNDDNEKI

[2] = Aqueous solubility of the compound in 40% aqueous trappsol; assay type: physicochemical
Rattus norvegicus [3] = assay: Antiobesity activity in Sprague-Dawley rat spontaneous nocturnal feeding model assessed as reduction in food intake at 35.6 to 60 mg/kg, po administered 2.5 hrs before onset of darkness measured during first hr; assay type: functional, organism-based
[4] = Oral bioavailability in rat at 20 mg/kg; assay type: ADME, organism-based; conditions: in vivo
[5] = Bioavailability in rat at 10 mg/kg, ip; assay type: ADME, organism-based; conditions: in vivo
Rattus norvegicus [6] = assay: Antiobesity activity in Sprague-Dawley rat spontaneous nocturnal feeding model assessed as reduction in food intake at 10 to 30 mg/kg, ip administered 1 hr before onset of darkness measured during first hour and first 3 hrs of darkness; assay type: functional, organism-based
[7] = Drug uptake in rat brain at 10 mg/kg, ip after 15 mins; assay type: ADME, organism-based; design: dose 10 mg/kg, route intraperitoneal; conditions: read-out: Drug uptake

SMILES | IC50 [1] [µM] | further results
CCOc1cccc(C2(N3CCN(c4ccccc4)CC3)C3CC(C)CC32)c1 (stereo unspecified) | 0.062 | –
CCOc1cccc(C2(N3CCN(c4cncnc4)CC3)C3CC(C)CC32)c1 (stereo unspecified) | 5.03 | –
CCOc1cccc(C2(N3CCN(c4cccnn4)CC3)C3CC(C)CC32)c1 (stereo unspecified) | 4.38 | –
CCOc1cccc(C2(N3CCN(c4cnccn4)CC3)C3CC(C)CC32)c1 (stereo unspecified) | 0.265 | –
CCOc1cccc(C2(N3CCN(c4ncccn4)CC3)C3CC(C)CC32)c1 (stereo unspecified) | 0.054 | solubility [2]: 10000 µg/mL (≈ 26.4 mM)
CCOc1cccc(C2(N3CCN(c4ccncc4)CC3)C3CC(C)CC32)c1 (stereo unspecified) | > 10 | –
CCOc1cccc(C2(N3CCNCC3)C3CC(C)CC32)c1 (stereo unspecified) | > 10 | –
CCOc1cccc(C2(N3CCN(c4ccccc4N)CC3)C3CC(C)CC32)c1 (stereo unspecified) | > 10 | –
CCOc1cccc(C2(N3CCN(c4ccccn4)CC3)C3CC(C)CC32)c1 (stereo unspecified) | 0.042 | solubility [2]: > 50000 µg/mL; Activity (Rattus norvegicus [3]): Active; bioavailability [4]: 53%; bioavailability [5]: 40%; Activity (Rattus norvegicus [6]): Active; concentration at 0.25 h [7]: > 100 nM
CCOc1cccc(C2(N3CCN(c4cccnc4)CC3)C3CC(C)CC32)c1 (stereo unspecified) | 0.892 | –
CCOc1cccc(C2(N3CCN(c4ncncn4)CC3)C3CC(C)CC32)c1 (stereo unspecified) | 4.27 | –
CCOc1cccc(C2(N3CCN(c4cccc(OC)n4)CC3)C3CC(C)CC32)c1 (stereo unspecified) | > 10 | –
CCOc1cccc(C2(N3CCN(Cc4ccccc4)CC3)C3CC(C)CC32)c1 (stereo unspecified) | > 10 | –
CCOc1cccc(C2(N3CCN(c4ccc(Cl)nn4)CC3)C3CC(C)CC32)c1 (stereo unspecified) | > 10 | –
